According to the NIST ThermoML archive (doi:10.1021/je400830w):
Numbers after ± are expanded uncertainties.

Columns and labels:
[1] = refractive index (Na D-line) (dimensionless); wn = mass fraction of the nth substance listed; conditions: 100 kPa, Liquid, Standard Abbe refractometry
[2] = wn = mass fraction of the nth substance listed; conditions: 100 kPa, Liquid; for mass density: Vibrating tube method

## O=C([O-])[C@@H]1CCCN1.[Na+] [sodium L-prolinate] + O
[1]; 298.15 K, w1 = 0.05
  refractive index: 1.34005 ± 0.00048
[1]; 298.15 K, w1 = 0.1
  refractive index: 1.34767 ± 0.00049
[1]; 298.15 K, w1 = 0.2
  refractive index: 1.36337 ± 0.0005
[1]; 298.15 K, w1 = 0.3
  refractive index: 1.37937 ± 0.00052
[1]; 298.15 K, w1 = 0.4
  refractive index: 1.39604 ± 0.00053
[1]; 303.15 K, w1 = 0.05
  refractive index: 1.33942 ± 0.00048
[1]; 303.15 K, w1 = 0.1
  refractive index: 1.34706 ± 0.00049
[1]; 303.15 K, w1 = 0.2
  refractive index: 1.36278 ± 0.0005
[1]; 303.15 K, w1 = 0.3
  refractive index: 1.37869 ± 0.00052
[1]; 303.15 K, w1 = 0.4
  refractive index: 1.39498 ± 0.00053
[1]; 308.15 K, w1 = 0.05
  refractive index: 1.33879 ± 0.00048
[1]; 308.15 K, w1 = 0.1
  refractive index: 1.34633 ± 0.00049
[1]; 308.15 K, w1 = 0.2
  refractive index: 1.36201 ± 0.0005
[1]; 308.15 K, w1 = 0.3
  refractive index: 1.37768 ± 0.00052
[1]; 308.15 K, w1 = 0.4
  refractive index: 1.39387 ± 0.00053
[1]; 313.15 K, w1 = 0.05
  refractive index: 1.33802 ± 0.00048
[1]; 313.15 K, w1 = 0.1
  refractive index: 1.3456 ± 0.00049
[1]; 313.15 K, w1 = 0.2
  refractive index: 1.36125 ± 0.0005
[1]; 313.15 K, w1 = 0.3
  refractive index: 1.37678 ± 0.00051
[1]; 313.15 K, w1 = 0.4
  refractive index: 1.39268 ± 0.00053
[1]; 318.15 K, w1 = 0.05
  refractive index: 1.33724 ± 0.00049
[1]; 318.15 K, w1 = 0.1
  refractive index: 1.34502 ± 0.00049
[1]; 318.15 K, w1 = 0.2
  refractive index: 1.36042 ± 0.0005
[1]; 318.15 K, w1 = 0.3
  refractive index: 1.37586 ± 0.00051
[1]; 318.15 K, w1 = 0.4
  refractive index: 1.39154 ± 0.00052
[1]; 323.15 K, w1 = 0.05
  refractive index: 1.33642 ± 0.00049
[1]; 323.15 K, w1 = 0.1
  refractive index: 1.34433 ± 0.00049
[1]; 323.15 K, w1 = 0.2
  refractive index: 1.35984 ± 0.0005
[1]; 323.15 K, w1 = 0.3
  refractive index: 1.37526 ± 0.00051
[1]; 323.15 K, w1 = 0.4
  refractive index: 1.39048 ± 0.00052
[1]; 328.15 K, w1 = 0.05
  refractive index: 1.33569 ± 0.00049
[1]; 328.15 K, w1 = 0.1
  refractive index: 1.34373 ± 0.00049
[1]; 328.15 K, w1 = 0.2
  refractive index: 1.35931 ± 0.0005
[1]; 328.15 K, w1 = 0.3
  refractive index: 1.37439 ± 0.0005
[1]; 328.15 K, w1 = 0.4
  refractive index: 1.38912 ± 0.00051
[1]; 333.15 K, w1 = 0.05
  refractive index: 1.33497 ± 0.00049
[1]; 333.15 K, w1 = 0.1
  refractive index: 1.34306 ± 0.00049
[1]; 333.15 K, w1 = 0.2
  refractive index: 1.35882 ± 0.0005
[1]; 333.15 K, w1 = 0.3
  refractive index: 1.37364 ± 0.0005
[1]; 333.15 K, w1 = 0.4
  refractive index: 1.38795 ± 0.00051
[1]; 338.15 K, w1 = 0.05
  refractive index: 1.33424 ± 0.0005
[1]; 338.15 K, w1 = 0.1
  refractive index: 1.34256 ± 0.0005
[1]; 338.15 K, w1 = 0.2
  refractive index: 1.35866 ± 0.0005
[1]; 338.15 K, w1 = 0.3
  refractive index: 1.37322 ± 0.00049
[1]; 338.15 K, w1 = 0.4
  refractive index: 1.38677 ± 0.0005
[1]; 343.15 K, w1 = 0.05
  refractive index: 1.33349 ± 0.00051
[1]; 343.15 K, w1 = 0.1
  refractive index: 1.34213 ± 0.0005
[1]; 343.15 K, w1 = 0.2
  refractive index: 1.35842 ± 0.0005
[1]; 343.15 K, w1 = 0.3
  refractive index: 1.37279 ± 0.00049
[1]; 343.15 K, w1 = 0.4
  refractive index: 1.38566 ± 0.00049
[2]; 298.15 K, w1 = 0.05
  mass density: 1015.28 ± 0.79 kg/m3
  viscosity: 1.16 ± 0.025 mPa·s
[2]; 298.15 K, w1 = 0.1
  mass density: 1033.9 ± 0.81 kg/m3
  viscosity: 1.456 ± 0.03 mPa·s
[2]; 298.15 K, w1 = 0.2
  mass density: 1071.61 ± 0.85 kg/m3
  viscosity: 2.292 ± 0.045 mPa·s
[2]; 298.15 K, w1 = 0.3
  mass density: 1109.81 ± 0.91 kg/m3
  viscosity: 3.787 ± 0.072 mPa·s
[2]; 298.15 K, w1 = 0.4
  mass density: 1148.69 ± 0.98 kg/m3
  viscosity: 5.56 ± 0.1 mPa·s
[2]; 303.15 K, w1 = 0.05
  mass density: 1013.73 ± 0.79 kg/m3
  viscosity: 1.02 ± 0.023 mPa·s
[2]; 303.15 K, w1 = 0.1
  mass density: 1032.18 ± 0.8 kg/m3
  viscosity: 1.267 ± 0.027 mPa·s
[2]; 303.15 K, w1 = 0.2
  mass density: 1069.51 ± 0.84 kg/m3
  viscosity: 1.967 ± 0.039 mPa·s
[2]; 303.15 K, w1 = 0.3
  mass density: 1106.73 ± 0.9 kg/m3
  viscosity: 3.327 ± 0.063 mPa·s
[2]; 303.15 K, w1 = 0.4
  mass density: 1145.79 ± 0.99 kg/m3
  viscosity: 4.801 ± 0.087 mPa·s
[2]; 308.15 K, w1 = 0.05
  mass density: 1011.98 ± 0.78 kg/m3
  viscosity: 0.9028 ± 0.021 mPa·s
[2]; 308.15 K, w1 = 0.1
  mass density: 1030.28 ± 0.8 kg/m3
  viscosity: 1.114 ± 0.025 mPa·s
[2]; 308.15 K, w1 = 0.2
  mass density: 1067.29 ± 0.83 kg/m3
  viscosity: 1.702 ± 0.035 mPa·s
[2]; 308.15 K, w1 = 0.3
  mass density: 1104.08 ± 0.9 kg/m3
  viscosity: 2.923 ± 0.055 mPa·s
[2]; 308.15 K, w1 = 0.4
  mass density: 1142.83 ± 0.98 kg/m3
  viscosity: 4.21 ± 0.076 mPa·s
[2]; 313.15 K, w1 = 0.05
  mass density: 1010.05 ± 0.78 kg/m3
  viscosity: 0.8062 ± 0.02 mPa·s
[2]; 313.15 K, w1 = 0.1
  mass density: 1028.22 ± 0.79 kg/m3
  viscosity: 0.984 ± 0.023 mPa·s
[2]; 313.15 K, w1 = 0.2
  mass density: 1064.94 ± 0.83 kg/m3
  viscosity: 1.482 ± 0.031 mPa·s
[2]; 313.15 K, w1 = 0.3
  mass density: 1101.95 ± 0.89 kg/m3
  viscosity: 2.509 ± 0.047 mPa·s
[2]; 313.15 K, w1 = 0.4
  mass density: 1139.8 ± 0.96 kg/m3
  viscosity: 3.53 ± 0.064 mPa·s
[2]; 318.15 K, w1 = 0.05
  mass density: 1007.96 ± 0.77 kg/m3
  viscosity: 0.7245 ± 0.019 mPa·s
[2]; 318.15 K, w1 = 0.1
  mass density: 1026.01 ± 0.78 kg/m3
  viscosity: 0.8784 ± 0.021 mPa·s
[2]; 318.15 K, w1 = 0.2
  mass density: 1062.47 ± 0.82 kg/m3
  viscosity: 1.309 ± 0.028 mPa·s
[2]; 318.15 K, w1 = 0.3
  mass density: 1099.31 ± 0.88 kg/m3
  viscosity: 2.193 ± 0.041 mPa·s
[2]; 318.15 K, w1 = 0.4
  mass density: 1136.71 ± 0.95 kg/m3
  viscosity: 2.997 ± 0.054 mPa·s
[2]; 323.15 K, w1 = 0.05
  mass density: 1005.72 ± 0.77 kg/m3
  viscosity: 0.6556 ± 0.018 mPa·s
[2]; 323.15 K, w1 = 0.1
  mass density: 1023.66 ± 0.78 kg/m3
  viscosity: 0.7874 ± 0.02 mPa·s
[2]; 323.15 K, w1 = 0.2
  mass density: 1059.89 ± 0.82 kg/m3
  viscosity: 1.164 ± 0.026 mPa·s
[2]; 323.15 K, w1 = 0.3
  mass density: 1096.7 ± 0.88 kg/m3
  viscosity: 1.94 ± 0.036 mPa·s
[2]; 323.15 K, w1 = 0.4
  mass density: 1133.56 ± 0.94 kg/m3
  viscosity: 2.581 ± 0.046 mPa·s
[2]; 328.15 K, w1 = 0.05
  mass density: 1003.32 ± 0.76 kg/m3
  viscosity: 0.5983 ± 0.017 mPa·s
[2]; 328.15 K, w1 = 0.1
  mass density: 1021.18 ± 0.78 kg/m3
  viscosity: 0.7118 ± 0.019 mPa·s
[2]; 328.15 K, w1 = 0.2
  mass density: 1057.21 ± 0.81 kg/m3
  viscosity: 1.038 ± 0.023 mPa·s
[2]; 328.15 K, w1 = 0.3
  mass density: 1092.78 ± 0.87 kg/m3
  viscosity: 1.69 ± 0.032 mPa·s
[2]; 328.15 K, w1 = 0.4
  mass density: 1130.34 ± 0.95 kg/m3
  viscosity: 2.241 ± 0.04 mPa·s
[2]; 333.15 K, w1 = 0.05
  mass density: 1000.79 ± 0.76 kg/m3
  viscosity: 0.5454 ± 0.017 mPa·s
[2]; 333.15 K, w1 = 0.1
  mass density: 1018.58 ± 0.77 kg/m3
  viscosity: 0.6471 ± 0.018 mPa·s
[2]; 333.15 K, w1 = 0.2
  mass density: 1054.42 ± 0.81 kg/m3
  viscosity: 0.9221 ± 0.022 mPa·s
[2]; 333.15 K, w1 = 0.3
  mass density: 1090.33 ± 0.86 kg/m3
  viscosity: 1.519 ± 0.029 mPa·s
[2]; 333.15 K, w1 = 0.4
  mass density: 1127.09 ± 0.93 kg/m3
  viscosity: 1.96 ± 0.035 mPa·s
[2]; 338.15 K, w1 = 0.05
  mass density: 998.13 ± 0.76 kg/m3
  viscosity: 0.5008 ± 0.016 mPa·s
[2]; 338.15 K, w1 = 0.1
  mass density: 1015.87 ± 0.77 kg/m3
  viscosity: 0.593 ± 0.017 mPa·s
[2]; 338.15 K, w1 = 0.2
  mass density: 1051.56 ± 0.81 kg/m3
  viscosity: 0.8345 ± 0.021 mPa·s
[2]; 338.15 K, w1 = 0.3
  mass density: 1088.2 ± 0.86 kg/m3
  viscosity: 1.361 ± 0.027 mPa·s
[2]; 338.15 K, w1 = 0.4
  mass density: 1123.8 ± 0.91 kg/m3
  viscosity: 1.728 ± 0.032 mPa·s
[2]; 343.15 K, w1 = 0.05
  mass density: 995.35 ± 0.75 kg/m3
  viscosity: 0.4617 ± 0.016 mPa·s
[2]; 343.15 K, w1 = 0.1
  mass density: 1013.04 ± 0.77 kg/m3
  viscosity: 0.5426 ± 0.017 mPa·s
[2]; 343.15 K, w1 = 0.2
  mass density: 1048.61 ± 0.81 kg/m3
  viscosity: 0.7524 ± 0.019 mPa·s
[2]; 343.15 K, w1 = 0.3
  mass density: 1085.34 ± 0.85 kg/m3
  viscosity: 1.203 ± 0.025 mPa·s
[2]; 343.15 K, w1 = 0.4
  mass density: 1120.46 ± 0.9 kg/m3
  viscosity: 1.536 ± 0.029 mPa·s
